These results are taken from publication PMC7660650, “Chemical Starting Matter for HNF4α Ligand Discovery and Chemogenomics” (International Journal of Molecular Sciences, 2020).

Values joined by “and” are separate entries in the source; they are usually repeats but may differ in a detail not shown here. Equal entries are not always repeated.

For this experiment, the target named is T1, Gal4-HNF4α (human HNF4α LBD) (Homo sapiens, UniProt P41235).
T1 construct: uniprot entry: P41235-1, residues 142-377; expressed in transfected cells; host or cells: HEK293T
T1 sequence (P41235 142-377): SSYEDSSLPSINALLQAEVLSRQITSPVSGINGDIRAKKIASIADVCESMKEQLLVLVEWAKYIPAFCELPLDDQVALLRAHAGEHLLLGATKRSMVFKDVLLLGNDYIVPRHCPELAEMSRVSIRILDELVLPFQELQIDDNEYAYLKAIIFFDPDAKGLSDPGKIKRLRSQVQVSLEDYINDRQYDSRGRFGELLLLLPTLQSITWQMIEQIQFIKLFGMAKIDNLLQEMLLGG
The experiment can be described thus: Hybrid Gal4-HNF4α reporter gene assay in transiently transfected HEK293T cells. Type of experiment: cell-based. The conditions noted are these: Table S1, primary screening, 50 µM. Background: Reporter assays use an easily measured gene product as a stand-in for the process of interest.
`Oc1ccccc1OCC(F)(F)F` [Prestw-Frag-3225, Oc1ccccc1OCC(F)(F)F]: the “HNF4a-screening_activity_(mean_of_n=2)” value is recorded as 1.152.
With `OCCN1CCN(c2ccccc2)CC1` [Prestw-Frag-1945, OCCN1CCN(CC1)c1ccccc1], the “HNF4a-screening_activity_(mean_of_n=2)” value was 1.061.
The result for `NCc1cscn1` [Prestw-Frag-3747, NCc1cscn1] reads 0.9617; that for `COc1ccc(N)nn1` [Prestw-Frag-1167, COc1ccc(N)nn1], 1.35.
The result for `Oc1ccc2[nH]ccc2c1` [Prestw-Frag-1645, Oc1ccc2[nH]ccc2c1] reads 1.016.
In the case of `CC(C(=O)O)c1cccc(F)c1` (stereo not shown) [Prestw-Frag-3706, CC(C(O)=O)c1cccc(F)c1] it was 1.072; in that of `OC(c1ccccc1)(c1ccccc1)C1CCNCC1` [Prestw-Frag-1654, OC(C1CCNCC1)(c1ccccc1)c1ccccc1], 1.142 and 1.152; in that of `Oc1cccc2c1CCCC2` [Prestw-Frag-1156, Oc1cccc2CCCCc12], 0.9426.
As for `COc1ccc2c(c1)CCCC2` [Prestw-Frag-3188, COc1ccc2CCCCc2c1], the “HNF4a-screening_activity_(mean_of_n=2)” value was 0.8877.
As to `O=C(O)CNC(=O)c1ccccc1` [Prestw-Frag-2576, OC(=O)CNC(=O)c1ccccc1], the “HNF4a-screening_activity_(mean_of_n=2)” value is listed as 1.001.
In the case of `C[C@@H](O)c1cc(C(F)(F)F)cc(C(F)(F)F)c1` [Prestw-Frag-2849, C[C@@H](O)c1cc(cc(c1)C(F)(F)F)C(F)(F)F] it was 1.171; in that of `COc1cc2c(cc1OC)CC(=O)NCC2` [Prestw-Frag-3698, COc1cc2CCNC(=O)Cc2cc1OC], 1.019; in that of `NCCc1ccc(F)cc1F` [Prestw-Frag-3746, NCCc1ccc(F)cc1F], 1.162.
In the case of `FC(F)(F)c1nnc2n1CCNC2` [Prestw-Frag-3253, FC(F)(F)c1nnc2CNCCn12] it was 1.371; in that of `O=C1CCOc2ccccc21` [Prestw-Frag-1740, O=C1CCOc2ccccc12], 0.9806; in that of `Nc1ccc(Cl)nn1` [Prestw-Frag-1184, Nc1ccc(Cl)nn1], 0.9468.
In the case of `CCc1cccc2c(CCO)c[nH]c12` [Prestw-Frag-1299, CCc1cccc2c(CCO)c[nH]c12] it was 1.255.
For `OC(c1ccccc1)c1ccc(Cl)cc1` (stereo not shown) [Prestw-Frag-1106, OC(c1ccccc1)c1ccc(Cl)cc1], the “HNF4a-screening_activity_(mean_of_n=2)” value turned out to be 0.8543.
For `c1cc2c(cc1OC[C@H]1CCCNC1)OCO2` [Prestw-Frag-2789, C(Oc1ccc2OCOc2c1)[C@H]1CCCNC1], the “HNF4a-screening_activity_(mean_of_n=2)” value is given as 1.15.
On to `CNC(=O)c1c(OC)ccc(Br)c1OC` [Prestw-Frag-3704, CNC(=O)c1c(OC)ccc(Br)c1OC], for which the “HNF4a-screening_activity_(mean_of_n=2)” value came out at 1.072.
For `O=C1CNCN1` [Prestw-Frag-3718, O=C1CNCN1], the “HNF4a-screening_activity_(mean_of_n=2)” value came to 1.053.
For the compound `O=C(Cc1ccccc1F)C1CC1` [Prestw-Frag-3198, Fc1ccccc1CC(=O)C1CC1], the “HNF4a-screening_activity_(mean_of_n=2)” value was found to be 1.083.
In the case of `CCN(CC)CCNC(=O)c1ccc(N)c(Cl)c1` [Prestw-Frag-3120, CCN(CC)CCNC(=O)c1ccc(N)c(Cl)c1] it was 1.18; in that of `CN1C(=O)CCC1=O` [Prestw-Frag-2713, CN1C(=O)CCC1=O], 0.9037.
In the case of `CC(O)(C(=O)O)c1ccccc1` (stereo not shown) [Prestw-Frag-3717, CC(O)(C(O)=O)c1ccccc1] it was 1.037; in that of `CN1Cc2c(N)cccc2C(c2ccccc2)C1` (stereo not shown) [Prestw-Frag-1552, CN1CC(c2ccccc2)c2cccc(N)c2C1], 1.162; in that of `NC(=O)c1ccncc1` [Prestw-Frag-2587, NC(=O)c1ccncc1], 0.9347.
In the case of `Oc1cc(Cl)c(Cl)cc1Cl` [Prestw-Frag-2898, Oc1cc(Cl)c(Cl)cc1Cl] it was 5.433.
`CC(=O)c1ccc2c(c1)OCO2` [Prestw-Frag-3686, CC(=O)c1ccc2OCOc2c1]: the “HNF4a-screening_activity_(mean_of_n=2)” value is recorded as 0.9343.
The result for `CN(C)CCNCc1ccccc1` [Prestw-Frag-1476, CN(C)CCNCc1ccccc1] reads 1.113; that for `CN1CCc2cccc(N)c2C1` [Prestw-Frag-1553, CN1CCc2cccc(N)c2C1], 1.039 and 1.009; that for `COC(=O)C1=C(C)NC(C)=C(C(=O)OC)C1` [Prestw-Frag-1547, COC(=O)C1=C(C)NC(C)=C(C1)C(=O)OC], 0.9986.
As for `CS(=O)(=O)NC(Cc1ccccc1)C(=O)O` (stereo not shown) [Prestw-Frag-3362, CS(=O)(=O)NC(Cc1ccccc1)C(O)=O], the “HNF4a-screening_activity_(mean_of_n=2)” value is 1.241.
The result for `COc1ccc(CC(C)N)cc1` (stereo not shown) [Prestw-Frag-3342, COc1ccc(CC(C)N)cc1] reads 1.446; that for `OCC(O)COc1ccccc1` (stereo not shown) [Prestw-Frag-1337, OCC(O)COc1ccccc1], 0.9566.
In the case of `CNS(=O)(=O)Cc1ccc2[nH]cc(CCN)c2c1` [Prestw-Frag-3017, CNS(=O)(=O)Cc1ccc2[nH]cc(CCN)c2c1] it was 0.7522.
The result for `CCN(CC)Cc1cc(N)ccc1O` [Prestw-Frag-1462, CCN(CC)Cc1cc(N)ccc1O] reads 1.135; that for `COc1ccc(N2CCN(c3ccc(N)cc3)CC2)cc1` [Prestw-Frag-1557, COc1ccc(cc1)N1CCN(CC1)c1ccc(N)cc1], 1.098; that for `CN1CCN(CCCC(=O)c2ccc(F)cc2)CC1` [Prestw-Frag-3692, CN1CCN(CCCC(=O)c2ccc(F)cc2)CC1], 1.385.
As to `O=C1c2nccnc2C(O)N1c1ccc(Cl)cn1` (stereo not shown) [Prestw-Frag-3046, OC1N(C(=O)c2nccnc12)c1ccc(Cl)cn1], the “HNF4a-screening_activity_(mean_of_n=2)” value stood at 0.8017.
In the case of `NCCCCc1ccccc1` [Prestw-Frag-1031, NCCCCc1ccccc1] it was 1.332; in that of `NS(=O)(=O)c1ccc(Cl)cc1` [Prestw-Frag-1977, NS(=O)(=O)c1ccc(Cl)cc1], 0.8584.
The result for `c1ccc(-c2nnn[nH]2)cc1` [Prestw-Frag-2887, c1ccc(cc1)-c1nnn[nH]1] reads 0.9719.
Turning to `NC(=O)COc1ccccc1` [Prestw-Frag-2578, NC(=O)COc1ccccc1], the “HNF4a-screening_activity_(mean_of_n=2)” value came to 1.034.
The result for `NCCOC(c1ccc(F)cc1)c1ccc(F)cc1` [Prestw-Frag-1925, NCCOC(c1ccc(F)cc1)c1ccc(F)cc1] reads 1.095 and 1.195; that for `OCc1ccc(F)cc1F` [Prestw-Frag-3100, OCc1ccc(F)cc1F], 0.9757; that for `Cc1ncsc1CCO` [Prestw-Frag-1098, Cc1ncsc1CCO], 1.111.
In the case of `CCNC(=O)c1ccc(Cl)cc1` [Prestw-Frag-2818, CCNC(=O)c1ccc(Cl)cc1] it was 0.8348; in that of `C[C@H]1NC(=O)NC1=O` [Prestw-Frag-1311, C[C@H]1NC(=O)NC1=O], 1.09.
As to `NCCCCN1CCN(c2ncccn2)CC1` [Prestw-Frag-2921, NCCCCN1CCN(CC1)c1ncccn1], the “HNF4a-screening_activity_(mean_of_n=2)” value amounted to 1.125.
In the case of `O=C(c1ccccc1)N1CCNCC1` [Prestw-Frag-3677, O=C(N1CCNCC1)c1ccccc1] it was 0.9693.
The result for `N=C(N)NC(=N)Nc1ccc(Cl)cc1` [Prestw-Frag-2722, NC(=N)NC(=N)Nc1ccc(Cl)cc1] reads 0.8665.
The result for `COc1ccc(CN2CCNCC2)cc1` [Prestw-Frag-2212, COc1ccc(CN2CCNCC2)cc1] reads 1.195; that for `O=C(O)c1ccccc1Nc1cccc(Cl)c1` [Prestw-Frag-1319, OC(=O)c1ccccc1Nc1cccc(Cl)c1], 0.64; that for `NCc1ncc[nH]1` [Prestw-Frag-3689, NCc1ncc[nH]1], 0.8561.
Take `Cc1nc(-c2ccccc2)cs1` [Prestw-Frag-3743, Cc1nc(cs1)-c1ccccc1]: the “HNF4a-screening_activity_(mean_of_n=2)” value is given as 1.125.
As for `CCCOc1ccccc1C(=N)N` [Prestw-Frag-1910, CCCOc1ccccc1C(N)=N], the “HNF4a-screening_activity_(mean_of_n=2)” value is 1.045 and 1.109.
In the case of `O=c1[nH]c2ccccc2n1C1CCNCC1` [Prestw-Frag-1587, O=c1[nH]c2ccccc2n1C1CCNCC1] it was 1.041; in that of `CC(Oc1ccccc1)C(N)=O` (stereo not shown) [Prestw-Frag-1200, CC(Oc1ccccc1)C(N)=O], 0.9571 and 0.9481; in that of `NNC(=O)c1ccccc1` [Prestw-Frag-1420, NNC(=O)c1ccccc1], 1.278.
In the case of `CCN1CCCC1CNC(=O)c1ccc(N)cc1` (stereo not shown) [Prestw-Frag-1632, CCN1CCCC1CNC(=O)c1ccc(N)cc1] it was 0.8541; in that of `O=c1[nH]cncc1-c1ccccc1` [Prestw-Frag-3734, O=c1[nH]cncc1-c1ccccc1], 1.236; in that of `Nc1ccc(CS(=O)(=O)N2CCCC2)cc1` [Prestw-Frag-3341, Nc1ccc(CS(=O)(=O)N2CCCC2)cc1], 1.256.
In the case of `O=C(c1ccccc1)c1ccc(Br)cc1` [Prestw-Frag-2912, Brc1ccc(cc1)C(=O)c1ccccc1] it was 0.975.
